Measured values taken from patent publication US9447051B2, “Diaminopyrimidines and uses thereof” (AbbVie inc., priority 2012, dated 2016).
pEC50: −log10 of the molar value.

test system: RSV (Group A, Long Strain); assay: Antiviral (RSV) assay: cytopathetic effect (CPE) protection assay in HEp-2 cells, MTT readout; assay type: cell-based, human respiratory syncytial virus (RSV); conditions: Table 1, 0.2 MOI RSV, 4 days incubation, protection from CPE
Protocol: HEp-2 cells and RSV (Group A, Long Strain) were obtained from the American Type Culture Collection (Manassas, Va.). A cytopathetic effect (CPE) protection assay was performed to determine the ability of a compound to protect the cells from viral infection and thus the CPE induced by viral infection. 96-well plates were first seeded with 3×10^3 HEp-2 cells per well in Dulbecco's modified Eagle's medium (DMEM) containing 10% fetal bovine serum (FBS). One day after the cells were seeded, they were preincubated with serial dilutions of compounds prepared in 100 μL assay medium (DMEM mixed with F12 medium at a 1:1 ratio, supplemented with 2% FBS and 1 mM sodium pyruvate) for 1 hour at 37° C. 100 μL of assay medium containing 0.2 multiplicity of infection (MOI) of RSV was then added to each well of cells. In addition to wells containing infected cells incubated with compounds, each plate also contained replicates of two kinds of controls: (1) Virus control contained cells infected with 0.2 MOI of RSV in assay medium, (2) Uninfected cell control contained cells incubated with assay medium only. After 4 days of incubation at 37° C., the viability of cells was assessed using MTT (Thiazolyl blue tetrazolium bromide, Sigma). A stock solution of MTT, at a concentration of 4 mg/mL in phosphate-buffered saline, was added to all wells at 25 μL per well. Plates were further incubated for 4 hours, and each well was then treated with 50 μL of a solution containing 20% sodium dodecyl sulfate (SDS) and 0.02 N HCl. After an overnight incubation, the plates were measured on a BioTek® microtiter plate reader at wavelengths of 570 nm and 650 nm. The MTT detection is based on the fact that viable (uninfected) cells can reduce the tetrazolium salts into colored formazan products, which can then be quantitated by spectrometry. […] Compounds were tested to determine both their antiviral and toxicity to determine their therapeutic window. Determination of the EC50 and TD50 of these active compounds were repeated one additional time to confirm the window.

Row | Structure (SMILES) | pEC50
1 | Cc1nc(NCc2ccccn2)nc(NC2CCC(C)(O)CC2)c1C (stereo not drawn) [Example 37, cis-4-({5,6-dimethyl-2-[(pyridin-2-ylmethyl)amino]pyrimidin-4-yl}amino)-1-methylcyclohexanol] | 6.44
2 | Cc1nc(NCc2ccccn2)nc(NC2CCC(C)(O)CC2)c1C (stereo not drawn) [Example 38, trans-4-({5,6-dimethyl-2-[(pyridin-2-ylmethyl)amino]pyrimidin-4-yl}amino)-1-methylcyclohexanol] | 5.62

same assay, conditions: human respiratory syncytial virus, HEp-2, 96 h, Table 1, 0.2 MOI RSV, 4 days incubation, protection from CPE

Row | pEC50 | Structure (SMILES)
3 | 5.28 | Cc1nc(NCc2ccccn2)nc(Nc2ccon2)c1C [Example 95, 5,6-dimethyl-N^4-(1,2-oxazol-3-yl)-N^2-(pyridin-2-ylmethyl)pyrimidine-2,4-diamine]
4 | 7.40 | Cc1nc(NCc2ccccn2)nc(Nc2cc(F)cc(F)c2)c1C [Example 64, N^4-(3,5-difluorophenyl)-5,6-dimethyl-N^2-(pyridin-2-ylmethyl)pyrimidine-2,4-diamine]
5 | 7.03 | Cc1nc(NCc2ccccn2)nc(Nc2ccc(Cl)cc2)c1C [Example 62, N^4-(4-chlorophenyl)-5,6-dimethyl-N^2-(pyridin-2-ylmethyl)pyrimidine-2,4-diamine]
6 | 7.59 | Cc1cc(F)ccc1Nc1nc(NCc2ccccn2)nc(C)c1C [Example 75, N^4-(4-fluoro-2-methylphenyl)-5,6-dimethyl-N^2-(pyridin-2-ylmethyl)pyrimidine-2,4-diamine]
7 | < 5.47 | COc1cccc(CNc2nc(C)c(C)c(NC3CCCCC3)n2)c1 [Example 25, N^4-cyclohexyl-N^2-(3-methoxybenzyl)-5,6-dimethylpyrimidine-2,4-diamine]
8 | < 5.82 | Cc1nc(NCc2ccc(OC(F)(F)F)cc2)nc(NC2CCCCC2)c1C [Example 10, N^4-cyclohexyl-5,6-dimethyl-N^2-[4-(trifluoromethoxy)benzyl]pyrimidine-2,4-diamine]
9 | < 5.43 | COc1ccc(CNc2nc(C)c(C)c(NC3CCCCC3)n2)cc1 [Example 8, N^4-cyclohexyl-N^2-(4-methoxybenzyl)-5,6-dimethylpyrimidine-2,4-diamine]
10 | 7.11 | Cc1cccc(F)c1Nc1nc(NCc2ccccn2)nc(C)c1C [Example 72, N^4-(2-fluoro-6-methylphenyl)-5,6-dimethyl-N^2-(pyridin-2-ylmethyl)pyrimidine-2,4-diamine]
11 | 6.23 | Cc1cccc(CNc2nc(C)c(C)c(NC3CCCCC3)n2)n1 [Example 19, N^4-cyclohexyl-5,6-dimethyl-N^2-[(6-methylpyridin-2-yl)methyl]pyrimidine-2,4-diamine]
12 | 7.00 | Cc1nc(NCc2ccccn2)nc(Nc2cc(F)ccc2F)c1C [Example 60, N^4-(2,5-difluorophenyl)-5,6-dimethyl-N^2-(pyridin-2-ylmethyl)pyrimidine-2,4-diamine]
13 | 7.20 | Cc1nc(NCc2ccccn2)nc(Nc2ccc(F)c(F)c2)c1C [Example 58, N^4-(3,4-difluorophenyl)-5,6-dimethyl-N^2-(pyridin-2-ylmethyl)pyrimidine-2,4-diamine]
14 | 5.62 | Cc1nc(NCc2ccccn2)nc(Nc2nncs2)c1C [Example 94, 5,6-dimethyl-N^2-(pyridin-2-ylmethyl)-N^4-(1,3,4-thiadiazol-2-yl)pyrimidine-2,4-diamine]
15 | 7.47 | Cc1nc(NCc2ccccn2)nc(Nc2ccccc2Cl)c1C [Example 66, N^4-(2-chlorophenyl)-5,6-dimethyl-N^2-(pyridin-2-ylmethyl)pyrimidine-2,4-diamine]
16 | < 5.70 | Cc1nc(NCc2ccc(C(C)C)cc2)nc(NC2CCCCC2)c1C [Example 11, N^4-cyclohexyl-N^2-(4-isopropylbenzyl)-5,6-dimethylpyrimidine-2,4-diamine]
17 | < 5.00 | Cc1nc(NCc2c(C)noc2C)nc(NC2CCCCC2)c1C [Example 23, N^4-cyclohexyl-N^2-[(3,5-dimethyl-1,2-oxazol-4-yl)methyl]-5,6-dimethylpyrimidine-2,4-diamine]
18 | 6.51 | COc1ccnc(CNc2nc(C)c(C)c(NC3CCCCC3)n2)c1 [Example 18, N^4-cyclohexyl-N^2-[(4-methoxypyridin-2-yl)methyl]-5,6-dimethylpyrimidine-2,4-diamine]
19 | 6.51 | Cc1nc(NCc2ccccn2)nc(Nc2cccc(F)c2)c1C [Example 49, N^4-(3-fluorophenyl)-5,6-dimethyl-N^2-(pyridin-2-ylmethyl)pyrimidine-2,4-diamine]
20 | 6.28 | Cc1nc(NCc2ccccn2)nc(NC2CCOc3ccccc32)c1C (centres unmarked) [Example 36, N^4-(3,4-dihydro-2H-chromen-4-yl)-5,6-dimethyl-N^2-(pyridin-2-ylmethyl)pyrimidine-2,4-diamine]
21 | 5.89 | Cc1nc(NCc2ccccn2)nc(NC2CCN(C)CC2)c1C [Example 81, 5,6-dimethyl-N^4-(1-methylpiperidin-4-yl)-N^2-(pyridin-2-ylmethyl)pyrimidine-2,4-diamine]
22 | 5.92 | Cc1nc(NCc2ccccn2)nc(N(C)C2CCCCC2)c1C [Example 77, N^4-cyclohexyl-N^4,5,6-trimethyl-N^2-(pyridin-2-ylmethyl)pyrimidine-2,4-diamine]
23 | 6.57 | Cc1nc(NCc2ccccn2)nc(Nc2ccccc2)c1C [Example 52, 5,6-dimethyl-N^4-phenyl-N^2-(pyridin-2-ylmethyl)pyrimidine-2,4-diamine]
24 | < 5.52 | Cc1nc(NCc2ccc(F)cc2)nc(NC2CCCCC2)c1C [Example 9, N^4-cyclohexyl-N^2-(4-fluorobenzyl)-5,6-dimethylpyrimidine-2,4-diamine]
25 | 6.08 | Cc1nc(NCc2ccn[nH]2)nc(NC2CCCCC2)c1C [Example 14, N^4-cyclohexyl-5,6-dimethyl-N^2-(1H-pyrazol-5-ylmethyl)pyrimidine-2,4-diamine]
26 | 7.80 | Cc1nc(NCc2ccccn2)nc(Nc2c(C(C)C)cccc2C(C)C)c1C [Example 84, N^4-(2,6-diisopropylphenyl)-5,6-dimethyl-N^2-(pyridin-2-ylmethyl)pyrimidine-2,4-diamine]
27 | 6.49 | Cc1nc(NCc2ccccn2)nc(NC2Cc3ccccc3C2)c1C [Example 46, N^4-(2,3-dihydro-1H-inden-2-yl)-5,6-dimethyl-N^2-(pyridin-2-ylmethyl)pyrimidine-2,4-diamine]
28 | 5.96 | Cc1nc(NCc2ccccn2)nc(NC2CCOCC2)c1C [Example 30, 5,6-dimethyl-N^2-(pyridin-2-ylmethyl)-N^4-(tetrahydro-2H-pyran-4-yl)pyrimidine-2,4-diamine]
29 | 5.66 | Cc1nc(NCc2ccccn2)nc(NCC2CCCO2)c1C (centres unmarked) [Example 91, 5,6-dimethyl-N^2-(pyridin-2-ylmethyl)-N^4-(tetrahydrofuran-2-ylmethyl)pyrimidine-2,4-diamine]
30 | 7.42 | Cc1nc(NCc2ccccn2)nc(Nc2ccc(F)cc2F)c1C [Example 88, N^4-(2,4-difluorophenyl)-5,6-dimethyl-N^2-(pyridin-2-ylmethyl)pyrimidine-2,4-diamine]
31 | 6.52 | Cc1nc(NCc2ccccn2)nc(NC2CCCCC2O)c1C (centres unmarked) [Example 42, 2-({5,6-dimethyl-2-[(pyridin-2-ylmethyl)amino]pyrimidin-4-yl}amino)cyclohexanol]
32 | 6.19 | Cc1nc(NCc2ccccn2)nc(Nc2ccnn2C)c1C [Example 74, 5,6-dimethyl-N^4-(1-methyl-1H-pyrazol-5-yl)-N^2-(pyridin-2-ylmethyl)pyrimidine-2,4-diamine]
